Measured values published in the NIST ThermoML archive (doi:10.1016/j.jct.2005.07.009).
± gives the expanded uncertainty stated by the source.

Experiments:
[1] = refractive index (Na D-line) (dimensionless); details: 298.15 K; 101.33 kPa; Liquid; Standard Abbe refractometry
[2] = 295.15 K; 101.33 kPa; Liquid; Vibrating tube method
[3] = excess molar enthalpy (molar enthalpy of mixing); xn = mol fraction of the nth substance listed; details: 298.15 K, 101 kPa, Liquid
[4] = xn = mol fraction of the nth substance listed; details: 298.15 K, 101 kPa, Liquid, Vibrating tube method

BrCCBr [1,2-dibromoethane]
refractive index [1]: 1.5357 ± 0.0008 | mass density [2]: 2168.3 ± 1.3 kg/m3

BrCCCBr [1,3-dibromopropane]
refractive index [1]: 1.5204 ± 0.0008 | mass density [2]: 1970.25 ± 1.1 kg/m3

BrCCCCBr [1,4-dibromobutane]
refractive index [1]: 1.5163 ± 0.0008 | mass density [2]: 1819.44 ± 1 kg/m3

BrCCCCCBr [1,5-dibromopentane]
refractive index [1]: 1.5099 ± 0.0009 | mass density [2]: 1694.09 ± 2.6 kg/m3

BrCCCCCBr [1,5-dibromopentane] + CCOC(=O)CC
excess molar enthalpy ([3]; x2 = 0.0603): 0.00839 ± 0.000502 kcal/mol | excess molar enthalpy ([3]; x2 = 0.1247): 0.0137 ± 0.000598 kcal/mol | excess molar enthalpy ([3]; x2 = 0.193): 0.0172 ± 0.000669 kcal/mol | excess molar enthalpy ([3]; x2 = 0.261): 0.0185 ± 0.000717 kcal/mol | excess molar enthalpy ([3]; x2 = 0.3249): 0.0179 ± 0.000693 kcal/mol | excess molar enthalpy ([3]; x2 = 0.3861): 0.0152 ± 0.000645 kcal/mol | excess molar enthalpy ([3]; x2 = 0.4412): 0.0111 ± 0.00055 kcal/mol | excess molar enthalpy ([3]; x2 = 0.4896): 0.007 ± 0.000478 kcal/mol | excess molar enthalpy ([3]; x2 = 0.5244): 0.00378 ± 0.00043 kcal/mol | excess molar enthalpy ([3]; x2 = 0.5365): 0.00325 ± 0.00043 kcal/mol | excess molar enthalpy ([3]; x2 = 0.5747): -0.000717 ± 0.000406 kcal/mol | excess molar enthalpy ([3]; x2 = 0.5773): -0.00105 ± 0.000406 kcal/mol | excess molar enthalpy ([3]; x2 = 0.6302): -0.00359 ± 0.00043 kcal/mol | excess molar enthalpy ([3]; x2 = 0.6884): -0.00526 ± 0.000454 kcal/mol | excess molar enthalpy ([3]; x2 = 0.752): -0.00629 ± 0.000478 kcal/mol | excess molar enthalpy ([3]; x2 = 0.8187): -0.00576 ± 0.000478 kcal/mol | excess molar enthalpy ([3]; x2 = 0.8848): -0.00461 ± 0.000454 kcal/mol | excess molar enthalpy ([3]; x2 = 0.9461): -0.00289 ± 0.00043 kcal/mol | mass density ([4]; x2 = 0.1344): 1600.12 ± 2.7 kg/m3 | mass density ([4]; x2 = 0.2009): 1552.01 ± 2.8 kg/m3 | mass density ([4]; x2 = 0.263): 1506.12 ± 2.8 kg/m3 | mass density ([4]; x2 = 0.3276): 1457.5 ± 2.8 kg/m3 | mass density ([4]; x2 = 0.3859): 1412.68 ± 2.8 kg/m3 | mass density ([4]; x2 = 0.4471): 1364.74 ± 2.8 kg/m3 | mass density ([4]; x2 = 0.5096): 1314.84 ± 2.8 kg/m3 | mass density ([4]; x2 = 0.6206): 1223.48 ± 2.7 kg/m3 | mass density ([4]; x2 = 0.6836): 1170.2 ± 2.7 kg/m3 | mass density ([4]; x2 = 0.7919): 1075.76 ± 2.6 kg/m3 | mass density ([4]; x2 = 0.8414): 1031.42 ± 2.5 kg/m3 | mass density ([4]; x2 = 0.8957): 981.96 ± 2.5 kg/m3

BrCCCCCBr [1,5-dibromopentane] + CCOC(C)=O
excess molar enthalpy ([3]; x2 = 0.0775): 0.0259 ± 0.000884 kcal/mol | excess molar enthalpy ([3]; x2 = 0.1619): 0.0431 ± 0.00129 kcal/mol | excess molar enthalpy ([3]; x2 = 0.2431): 0.0561 ± 0.0016 kcal/mol | excess molar enthalpy ([3]; x2 = 0.3197): 0.0639 ± 0.00179 kcal/mol | excess molar enthalpy ([3]; x2 = 0.3909): 0.0676 ± 0.00186 kcal/mol | excess molar enthalpy ([3]; x2 = 0.4536): 0.0674 ± 0.00186 kcal/mol | excess molar enthalpy ([3]; x2 = 0.5079): 0.0658 ± 0.00184 kcal/mol | excess molar enthalpy ([3]; x2 = 0.5103): 0.0652 ± 0.00182 kcal/mol | excess molar enthalpy ([3]; x2 = 0.5486): 0.0622 ± 0.00174 kcal/mol | excess molar enthalpy ([3]; x2 = 0.5612): 0.062 ± 0.00174 kcal/mol | excess molar enthalpy ([3]; x2 = 0.5934): 0.0591 ± 0.00167 kcal/mol | excess molar enthalpy ([3]; x2 = 0.6025): 0.0577 ± 0.00163 kcal/mol | excess molar enthalpy ([3]; x2 = 0.6413): 0.053 ± 0.00153 kcal/mol | excess molar enthalpy ([3]; x2 = 0.6919): 0.0458 ± 0.00134 kcal/mol | excess molar enthalpy ([3]; x2 = 0.7451): 0.0375 ± 0.00115 kcal/mol | excess molar enthalpy ([3]; x2 = 0.7998): 0.0284 ± 0.000932 kcal/mol | excess molar enthalpy ([3]; x2 = 0.8546): 0.0198 ± 0.000741 kcal/mol | excess molar enthalpy ([3]; x2 = 0.9082): 0.012 ± 0.000574 kcal/mol | excess molar enthalpy ([3]; x2 = 0.9563): 0.00528 ± 0.000478 kcal/mol | mass density ([4]; x2 = 0.0866): 1642.62 ± 2.7 kg/m3 | mass density ([4]; x2 = 0.1624): 1595.36 ± 2.8 kg/m3 | mass density ([4]; x2 = 0.2251): 1554.67 ± 2.8 kg/m3 | mass density ([4]; x2 = 0.2991): 1504.62 ± 2.8 kg/m3 | mass density ([4]; x2 = 0.3623): 1460.11 ± 2.9 kg/m3 | mass density ([4]; x2 = 0.4225): 1416.21 ± 2.9 kg/m3 | mass density ([4]; x2 = 0.5458): 1321 ± 2.9 kg/m3 | mass density ([4]; x2 = 0.6601): 1225.85 ± 2.8 kg/m3 | mass density ([4]; x2 = 0.765): 1131.91 ± 2.7 kg/m3 | mass density ([4]; x2 = 0.8611): 1039.57 ± 2.6 kg/m3 | mass density ([4]; x2 = 0.9561): 941.92 ± 2.4 kg/m3

BrCCCCCBr [1,5-dibromopentane] + CCOC=O
excess molar enthalpy ([3]; x2 = 0.0896): 0.0659 ± 0.00184 kcal/mol | excess molar enthalpy ([3]; x2 = 0.1866): 0.108 ± 0.00287 kcal/mol | excess molar enthalpy ([3]; x2 = 0.279): 0.138 ± 0.00359 kcal/mol | excess molar enthalpy ([3]; x2 = 0.3638): 0.157 ± 0.00406 kcal/mol | excess molar enthalpy ([3]; x2 = 0.4389): 0.166 ± 0.0043 kcal/mol | excess molar enthalpy ([3]; x2 = 0.5051): 0.169 ± 0.0043 kcal/mol | excess molar enthalpy ([3]; x2 = 0.5631): 0.166 ± 0.0043 kcal/mol | excess molar enthalpy ([3]; x2 = 0.6125): 0.158 ± 0.00406 kcal/mol | excess molar enthalpy ([3]; x2 = 0.6372): 0.153 ± 0.00406 kcal/mol | excess molar enthalpy ([3]; x2 = 0.6548): 0.149 ± 0.00382 kcal/mol | excess molar enthalpy ([3]; x2 = 0.6837): 0.142 ± 0.00359 kcal/mol | excess molar enthalpy ([3]; x2 = 0.6928): 0.139 ± 0.00359 kcal/mol | excess molar enthalpy ([3]; x2 = 0.7324): 0.128 ± 0.00335 kcal/mol | excess molar enthalpy ([3]; x2 = 0.7827): 0.108 ± 0.00287 kcal/mol | excess molar enthalpy ([3]; x2 = 0.831): 0.088 ± 0.00237 kcal/mol | excess molar enthalpy ([3]; x2 = 0.8797): 0.065 ± 0.00182 kcal/mol | excess molar enthalpy ([3]; x2 = 0.9254): 0.0385 ± 0.00117 kcal/mol | excess molar enthalpy ([3]; x2 = 0.966): 0.0136 ± 0.000598 kcal/mol | mass density ([4]; x2 = 0.089): 1651.25 ± 2.7 kg/m3 | mass density ([4]; x2 = 0.1775): 1605.2 ± 2.8 kg/m3 | mass density ([4]; x2 = 0.2567): 1560.84 ± 2.9 kg/m3 | mass density ([4]; x2 = 0.3412): 1509.84 ± 2.9 kg/m3 | mass density ([4]; x2 = 0.4134): 1463.17 ± 2.9 kg/m3 | mass density ([4]; x2 = 0.5374): 1374.43 ± 3 kg/m3 | mass density ([4]; x2 = 0.7024): 1237.83 ± 2.9 kg/m3 | mass density ([4]; x2 = 0.7951): 1149.61 ± 2.8 kg/m3 | mass density ([4]; x2 = 0.8844): 1054.85 ± 2.6 kg/m3 | mass density ([4]; x2 = 0.9227): 1010.83 ± 2.6 kg/m3

BrCCCCCCBr [1,6-dibromohexane]
refractive index [1]: 1.506 ± 0.0009 | mass density [2]: 1601.8 ± 2.5 kg/m3

BrCCCCCCBr [1,6-dibromohexane] + CCCC(=O)OCC
excess molar enthalpy ([3]; x2 = 0.0629): 0.00655 ± 0.000478 kcal/mol | excess molar enthalpy ([3]; x2 = 0.1341): 0.0105 ± 0.00055 kcal/mol | excess molar enthalpy ([3]; x2 = 0.2059): 0.0133 ± 0.000598 kcal/mol | excess molar enthalpy ([3]; x2 = 0.2734): 0.014 ± 0.000621 kcal/mol | excess molar enthalpy ([3]; x2 = 0.3411): 0.0136 ± 0.000598 kcal/mol | excess molar enthalpy ([3]; x2 = 0.4017): 0.0124 ± 0.000574 kcal/mol | excess molar enthalpy ([3]; x2 = 0.4524): 0.0103 ± 0.00055 kcal/mol | excess molar enthalpy ([3]; x2 = 0.4952): 0.00796 ± 0.000502 kcal/mol | excess molar enthalpy ([3]; x2 = 0.5312): 0.00562 ± 0.000478 kcal/mol | excess molar enthalpy ([3]; x2 = 0.5662): 0.00308 ± 0.00043 kcal/mol | excess molar enthalpy ([3]; x2 = 0.6022): 0.000191 ± 0.000382 kcal/mol | excess molar enthalpy ([3]; x2 = 0.6161): -0.000359 ± 0.000382 kcal/mol | excess molar enthalpy ([3]; x2 = 0.6589): -0.00213 ± 0.000406 kcal/mol | excess molar enthalpy ([3]; x2 = 0.7115): -0.00304 ± 0.00043 kcal/mol | excess molar enthalpy ([3]; x2 = 0.7699): -0.00366 ± 0.00043 kcal/mol | excess molar enthalpy ([3]; x2 = 0.8324): -0.00347 ± 0.00043 kcal/mol | excess molar enthalpy ([3]; x2 = 0.8956): -0.00213 ± 0.00043 kcal/mol | excess molar enthalpy ([3]; x2 = 0.9514): -0.000884 ± 0.000406 kcal/mol | mass density ([4]; x2 = 0.0741): 1554.45 ± 2.5 kg/m3 | mass density ([4]; x2 = 0.1407): 1511.27 ± 2.6 kg/m3 | mass density ([4]; x2 = 0.2026): 1470.35 ± 2.6 kg/m3 | mass density ([4]; x2 = 0.2669): 1427.12 ± 2.6 kg/m3 | mass density ([4]; x2 = 0.3292): 1384.45 ± 2.6 kg/m3 | mass density ([4]; x2 = 0.4493): 1300.05 ± 2.6 kg/m3 | mass density ([4]; x2 = 0.5934): 1194.98 ± 2.6 kg/m3 | mass density ([4]; x2 = 0.6267): 1170.08 ± 2.6 kg/m3 | mass density ([4]; x2 = 0.6854): 1125.55 ± 2.6 kg/m3 | mass density ([4]; x2 = 0.7302): 1091.1 ± 2.5 kg/m3 | mass density ([4]; x2 = 0.7843): 1048.89 ± 2.5 kg/m3 | mass density ([4]; x2 = 0.8939): 961.41 ± 2.4 kg/m3
